Measured values published in patent US20250345592A1, “BIODEGRADABLE ION PATCH AND METHOD FOR MANUFACTURING THE SAME” (SEOUL NATIONAL UNIVERSITY R&DB FOUNDATION, priority 2023, published 2025).

Format: in vitro ADME
Protocol: To enhance the absorption efficiency of the drug loaded in the provided gel, the current density applied to the ion patch was adjusted. Specifically, caffeine was added to the gelatin gel laminated on the anode of the ion patch, and various current densities of 50, 100, and 150 μA were applied. The amount of caffeine absorbed into the skin was then measured and compared.

## Cn1c(=O)c2c(ncn2C)n(C)c1=O [caffeine]
  amount of caffeine absorbed into the skin: highest in the order of 150, 50, and 100 μA current densities
